# Counter-ions that a name gives are not always drawn.
# Key:
# Caspase 9 = target: T1, Caspase 9 (Homo sapiens, UniProt P55211); assay: Caspase 9 cleavage of Ac-LEHD-AFC in buffers containing Hofmeister salts; format: biochemical
# T1 construct: purchased
# T1 sequence (P55211 1-315 limits assumed): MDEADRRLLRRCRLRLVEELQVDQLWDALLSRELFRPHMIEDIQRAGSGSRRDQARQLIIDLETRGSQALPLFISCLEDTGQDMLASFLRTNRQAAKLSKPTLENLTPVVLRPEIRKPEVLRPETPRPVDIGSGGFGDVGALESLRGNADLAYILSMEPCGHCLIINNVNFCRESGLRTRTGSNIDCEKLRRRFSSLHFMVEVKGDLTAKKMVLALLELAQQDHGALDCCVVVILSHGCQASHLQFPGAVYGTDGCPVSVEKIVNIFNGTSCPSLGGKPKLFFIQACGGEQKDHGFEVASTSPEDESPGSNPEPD
# T1 sequence (P55211 331-416 limits assumed): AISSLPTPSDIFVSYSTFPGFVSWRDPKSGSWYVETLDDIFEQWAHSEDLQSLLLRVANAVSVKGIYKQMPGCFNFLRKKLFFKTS
# Caspase 1 = target: T2, Caspase 1 (Homo sapiens, UniProt P29466); assay: Caspase 1 activity in ammonium sulfate at various concentrations
# T2 sequence (P29466 120-297 limits assumed): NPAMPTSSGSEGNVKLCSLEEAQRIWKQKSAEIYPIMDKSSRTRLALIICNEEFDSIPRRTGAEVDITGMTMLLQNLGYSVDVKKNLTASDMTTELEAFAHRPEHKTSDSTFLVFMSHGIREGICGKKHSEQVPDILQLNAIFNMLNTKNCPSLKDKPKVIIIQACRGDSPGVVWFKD
# T2 sequence (P29466 317-404 limits assumed): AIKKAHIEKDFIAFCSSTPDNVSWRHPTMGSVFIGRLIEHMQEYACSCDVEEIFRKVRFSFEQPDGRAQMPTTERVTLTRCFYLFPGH
# Procedure: (§1) The control buffer used to carry out specificity reactions is as follows: 20 mM PIPES pH 7.2, 1 mM EDTA, 0.1% CHAPS, 10% sucrose, 10 mM DTT. Various N-acetyl-tetrapeptide-7-amino-trifluoromethylcoumarin substrates at 100 uM were assayed with the different commercially available caspases. 2.5 mM stock substrate concentrations were prepared in DMSO and subsequently diluted to 200 uM with control buffer.
# (§2) 300 U stock solutions of the enzymes in interest were prepared in the control buffer listed above. The assay was carried out as follows: 96 well black Dynex microfluorometer 1 plate was used. Total Assay volume was 100 ul. 7-amino-trifluoromethyl coumarin (AFC) was excited at 400 nm, and fluorescence emission was monitored at 505 nm kinetically for the duration of 1 hour (h) wherein AFC was cleaved from the peptide.
# (§3) 50 ul of 200 uM stock substrate was added first (final assay concentration 100 uM). 40 ul of the control buffer was then added. The assay was initiated with the addition of 10 ul of the appropriate 300 U caspase stock (30 U in final assay). A linear rate (relative fluorescence U/s) was calculated from the entire duration of the experiment and graphed for each enzyme verses the various substrates tested.
# (§4) The substrates in ammonium sulfate using Caspase 9 was 25 uM Ac-LEHD-Afc (SEQ ID NO: 5) and for Caspase 3 was 25 uM Ac-DEVD-Afc (SEQ ID NO: 1).
# Caspase 7 = target: T3, Caspase 7 (Homo sapiens, UniProt P55210); assay: Caspase 7 activity in ammonium sulfate at various concentrations
# T3 sequence (P55210 24-198 limits assumed): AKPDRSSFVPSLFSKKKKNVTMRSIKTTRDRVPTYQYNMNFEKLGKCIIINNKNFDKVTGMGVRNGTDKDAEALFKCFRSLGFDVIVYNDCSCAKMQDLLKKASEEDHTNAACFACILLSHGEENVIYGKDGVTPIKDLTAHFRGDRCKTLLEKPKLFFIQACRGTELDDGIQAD
# T3 sequence (P55210 207-303 limits assumed): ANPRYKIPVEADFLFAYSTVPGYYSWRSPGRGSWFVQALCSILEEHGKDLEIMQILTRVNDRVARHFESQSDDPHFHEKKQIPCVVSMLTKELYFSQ
# Procedure: as §1, §2, §3, §4
# Caspase 3 = target: T4, Caspase 3 (Homo sapiens, UniProt P42574); assay: Caspase 3 cleavage of Ac-DEVD-Afc in ammonium sulfate at various concentrations; settings: 25 uM Ac-DEVD-Afc
# T4 sequence (P42574 29-175 limits assumed): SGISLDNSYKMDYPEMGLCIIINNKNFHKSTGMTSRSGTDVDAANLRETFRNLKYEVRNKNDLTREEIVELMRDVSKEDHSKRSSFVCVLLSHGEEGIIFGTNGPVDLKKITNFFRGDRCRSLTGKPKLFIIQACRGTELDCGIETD
# T4 sequence (P42574 176-277 limits assumed): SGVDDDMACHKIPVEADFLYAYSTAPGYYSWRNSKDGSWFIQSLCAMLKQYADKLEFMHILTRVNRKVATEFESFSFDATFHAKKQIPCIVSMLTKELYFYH
# Procedure: as §1, §2, §3, §4
# [1] = target: Herpes simplex virus 1 protease (Human herpesvirus 1, UniProt P10210); settings: 1M Na citrate; cited from earlier work
# Sequence of Herpes simplex virus 1 protease (P10210 1-247): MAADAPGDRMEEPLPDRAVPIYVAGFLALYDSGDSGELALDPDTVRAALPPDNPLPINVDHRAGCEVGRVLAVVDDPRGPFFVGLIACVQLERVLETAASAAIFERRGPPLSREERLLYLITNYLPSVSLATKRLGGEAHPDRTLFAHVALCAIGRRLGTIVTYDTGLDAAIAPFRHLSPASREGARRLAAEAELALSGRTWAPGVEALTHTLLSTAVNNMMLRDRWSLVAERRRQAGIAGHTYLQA
compound,measurement,setting,value
N.N.O=S(=O)(O)O [ammonium sulfate],Caspase 9 activity increase,"Caspase 9; sulfate concentrations from 0 to 1.6 M, 25 uM Ac-LEHD-Afc",1400 fold
same,effect of salt on Caspase 1 activity,Caspase 1,no effect
same,effect of salt on Caspase 7 activity,Caspase 7,no effect
same,effect of salt on Caspase 3 activity,Caspase 3,minimal effect
"O=C(O)CC(O)(CC(=O)O)C(=O)O [citrate, Na citrate]",activity of Caspase 9 relative to activity in 0.8 M bromide,"Caspase 9; 0.8 M salt in control buffer pH 7.2, 100 uM N-Ac-LEHD-Afc, 30 U Caspase 9/well (0.72 uM)","10,000 fold"
same,increase in activity of Herpes simplex virus 1 protease,[1],860 fold
O=P(O)(O)O [sodium phosphate],Caspase 9 activity increase,"Caspase 9; phosphate concentrations from 0 to 1 M, 100 uM Ac-LEHD-Afc",2200 fold

# — patent US7452683B2, “Caspase 9 activation and uses therefor” (Wyeth, priority 2002, dated 2008)
